Reference: publication PMC10897212, “Structural insight into the allosteric inhibition of human sodium-calcium exchanger NCX1 by XIP and SEA0400” (The EMBO Journal, 2023)

Molecular target: T1, Na+/Ca2+ exchanger NCX1.3 (Homo sapiens, UniProt P32418)
T1 construct: gene SLC8A1; full-length wild-type human NCX1.3 (UniProtKB P32418-2); model residues 51–283, 405–501, 518–637, 654–720, and 736–937
Assay: cryo-EM structure at […] Å; also CPM thermofluor shift (~[…] °C) and Fura-2 Ca2+ uptake inhibition at […] in HEK293T cells
Type: binding

CCOc1ccc(Oc2ccc(OCc3cc(F)ccc3F)cc2)c(N)c1 [SEA0400]
cryo-EM structure at 3.5 Å; also CPM thermofluor shift (~10 °C) and Fura-2 Ca2+: The SEA0400 molecule is allocated within a negatively charged cavity surrounded by TM2ab, TM4, TM5, and TM8
